Test results as given in PubChem BioAssay AID1963834 (Molecular Pharmacology Branch, DTP, NCI, 2024).
Several values for one entry are separate records, joined by “and”; a condition that tells them apart may be missing. Equal entries are not always repeated. Blank lines part the entries; values can stand above or below the molecule they belong to.

Tested on: 873145-292-R-J1-PDC complex spheroid viability
Test: Anticancer human tumor 873145-292-R-J1-PDC patient-derived renal clear cell carcinoma cell line growth inhibition [POLQ]
Conditions: for viability, T/C: stronger effect = lower value
Procedure: Multicellular complex tumor spheroid response to Polymerase (POL) inhibitors (novobiocin, ART-558, RP6685) in combination with a variety of drugs and investigational agents in selected tumor cell lines
The POL inhibitors (novobiocin, ART-558, and RP6685) were evaluated both individually and in combination with standard of care and investigational anticancer small molecules within a complex spheroid model of solid tumors. . Complex spheroids include a stromal component modeled by human endothelial cells (HUVEC) and fibroblasts modeled by human mesenchymal stem cells (MSCs). The concentration ranges selected for each drug and investigational agent were based upon clinically achievable concentrations if the clinical Cmax of the agent was known.
Compounds. The drugs and investigational agents: novobiocin (NSC847541), ART-558 (NSC835418), RP-6685 (NSC848927), peposertib (NSC802822), ceralasertib (NSC780249), elimusertib (NSC800525), camonsertib (NSC841442), AZD-1390 (NSC803789), olaparib (NSC753686), talazoparib (NSC767125), rucaparib (NSC756644), sotorasib (NSC818433), MRTX-1133 (NSC836407), SN-38 (NSC673596), topotecan (NSC609699), epotoside (NSC141540), doxorubicin (NSC123127), gemcitabine (NSC613327), 5-fluorouracil (NSC19893), paclitaxel (NSC125973), vemurafenib (NSC761431), MSA-2 (NSC828583), SN-011 (NSC837082), adavosertib (NSC754352), prexasertib (NSC758257), carboplatin (NSC241240) and oxaliplatin (NSC266046), were obtained from the National Cancer Institute (NCI) Developmental Therapeutics Program Chemical Repository (21). The FDA-approved anticancer drug set is available from the Developmental Therapeutics Program at https://dtp.cancer.gov/organization/dscb/obtaining/. […] The stock solutions were prepared in dimethyl sulfoxide (DMSO, Sigma-Aldrich, St. Louis, MO, cat. D2650), except for the platinum compounds which were prepared in saline (Quality Biological, Gaithersburg, MD, cat. 114-055-101), at 800-fold the tested concentration and stored at -70 degrees C prior to their use. All drugs and investigational agents were tested over a range starting from a high concentration at or near the clinical Cmax and decreasing in half-log increments. If the clinical Cmax for an agent had not been determined, the highest concentration tested was 10 microM, except for SN-38, which was tested at a high concentration of 1 microM.
Cell Culture. All cells were maintained in an incubator at 37 degrees C and 5% CO2 with 95% humidity. The PDC lines were cultured according to standard operating procedures established by the NCI PDMR (https://pdmr.cancer.gov). Table 3 of the manuscript, lists the cell lines along with the number of the three cell types plated to form the mct-spheroids and media for tumor cell growth. After thawing, all PDC lines, except 997537-175-T-J1-PDC and 415267-285-R-J2-PDC, were cultured in Matrigel-coated flasks prepared with a working solution of 1X Ham's F-12 nutrient mix, without supplementation (Thermo Fisher Scientific, cat. 11765054), 100 U/mL penicillin-streptomycin (Thermo Fisher Scientific, cat. 15140122), and 2.5% Matrigel (Corning Inc., Corning, NY, cat. 354248) for the first three passages. The two PDC lines 997537-175-T-J1-PDC and 415267-285-R-J2-PDC were cultured on uncoated flasks. The 857933-349-R-J2-PDC line was cultured in 6C/Colon 1B media containing advanced DMEM/F-12 (Thermo Fisher Scientific, cat. 12634028), 10 mM HEPES (Thermo Fisher Scientific, cat. 15630080), 1X GlutaMAX supplement (Thermo Fisher Scientific, cat. 35050061), 0.1 mg/mL primocin (InvivoGen, San Diego, CA, cat. ant-pm-2), 10% defined fetal bovine serum, heat inactivated (HyClone Laboratories Inc., Logan, UT, cat. SH30070.03HI), 50% L-WRN conditioned media (ATCC, cat. CRL-3276), 1.25 mM N-Acetyl-L-cysteine (Sigma-Aldrich, cat. A9165), 10 mM nicotinamide (Sigma-Aldrich, cat. N0636), 1X B-27 supplement (Thermo Fisher Scientific, cat. 17504044), 1X N-2 supplement (Thermo Fisher Scientific, cat. […]
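Note: spheroids exposed to compounds for 7 days before viability readout.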
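Throughout, for viability, T/C: luminescence signal used as surrogate for viable cell content; 100% = DMSO vehicle control viability.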

SMILES: CNCc1ccc(-c2[nH]c3cc(F)cc4c3c2CCNC4=O)cc1
viability, T/C (compound 0.0316 µM): 108% and 93.3% and 101%
viability, T/C (compound 0.1 µM): 101% and 96% and 102%
viability, T/C (compound 0.316 µM): 102% and 103% and 97.2%
viability, T/C (compound 1 µM): 103% and 91.5% and 93.2%
viability, T/C (compound 3.16 µM): 94.7% and 95.1% and 93.3%
viability, T/C (compound 10 µM): 99.7% and 98% and 92.6%
IC50 (curve of compound): > 10 µM

SMILES: COc1ccc([C@@H](O)c2cc(-c3ncnc4cc(N5CCOCC5)ccc34)c(F)cc2Cl)nn1
viability, T/C (compound 0.0316 µM): 70.5% and 97.3% and 103%
viability, T/C (compound 0.1 µM): 85% and 91.1% and 92.7%
viability, T/C (compound 0.316 µM): 86.9% and 84.3% and 87%
viability, T/C (compound 1 µM): 66.4% and 79.4% and 67.4%
viability, T/C (compound 3.16 µM): 56.9% and 52.8% and 57%
viability, T/C (compound 10 µM): 42.3% and 49.3% and 41.6%
IC50 (curve of compound): 5.01 µM and 7.26 µM and 5.06 µM

SMILES: C=CCn1c(=O)c2cnc(Nc3ccc(N4CCN(C)CC4)cc3)nc2n1-c1cccc(C(C)(C)O)n1 + Cc1cccc(N(C)C(=O)C2C(O)CCN2c2nc(C)cc(C(F)(F)F)c2C#N)c1
IC50 (curve of first compound, second compound 0.0316 µM): > 1 µM
IC50 (curve of first compound, second compound 0.1 µM): > 1 µM
IC50 (curve of first compound, second compound 0.316 µM): > 1 µM
IC50 (curve of first compound, second compound 1 µM): > 1 µM
IC50 (curve of first compound, second compound 3.16 µM): > 1 µM
IC50 (curve of first compound, second compound 10 µM): > 1 µM
viability, T/C (second compound 0.0316 µM, first compound 0.00316 µM): 93.1%
viability, T/C (second compound 0.0316 µM, first compound 0.01 µM): 104%
viability, T/C (second compound 0.0316 µM, first compound 0.0316 µM): 102%
viability, T/C (second compound 0.0316 µM, first compound 0.1 µM): 92%
viability, T/C (second compound 0.0316 µM, first compound 0.316 µM): 83.3%
viability, T/C (second compound 0.0316 µM, first compound 1 µM): 77.8%
viability, T/C (second compound 0.1 µM, first compound 0.00316 µM): 101%
viability, T/C (second compound 0.1 µM, first compound 0.01 µM): 97.3%
viability, T/C (second compound 0.1 µM, first compound 0.0316 µM): 96%
viability, T/C (second compound 0.1 µM, first compound 0.1 µM): 87.1%
viability, T/C (second compound 0.1 µM, first compound 0.316 µM): 88.3%
viability, T/C (second compound 0.1 µM, first compound 1 µM): 76.7%
viability, T/C (second compound 0.316 µM, first compound 0.00316 µM): 101%
viability, T/C (second compound 0.316 µM, first compound 0.01 µM): 110%
viability, T/C (second compound 0.316 µM, first compound 0.0316 µM): 82.8%
viability, T/C (second compound 0.316 µM, first compound 0.1 µM): 94.6%
viability, T/C (second compound 0.316 µM, first compound 0.316 µM): 81.4%
viability, T/C (second compound 0.316 µM, first compound 1 µM): 74.9%
viability, T/C (second compound 1 µM, first compound 0.00316 µM): 89.8%
viability, T/C (second compound 1 µM, first compound 0.01 µM): 94.4%
viability, T/C (second compound 1 µM, first compound 0.0316 µM): 101%
viability, T/C (second compound 1 µM, first compound 0.1 µM): 85.8%
viability, T/C (second compound 1 µM, first compound 0.316 µM): 87.5%
viability, T/C (second compound 1 µM, first compound 1 µM): 75.5%
viability, T/C (second compound 3.16 µM, first compound 0.00316 µM): 97.7%
viability, T/C (second compound 3.16 µM, first compound 0.01 µM): 120%
viability, T/C (second compound 3.16 µM, first compound 0.0316 µM): 112%
viability, T/C (second compound 3.16 µM, first compound 0.1 µM): 91.3%
viability, T/C (second compound 3.16 µM, first compound 0.316 µM): 86.9%
viability, T/C (second compound 3.16 µM, first compound 1 µM): 81.7%
viability, T/C (second compound 10 µM, first compound 0.00316 µM): 93.2%
viability, T/C (second compound 10 µM, first compound 0.01 µM): 97.2%
viability, T/C (second compound 10 µM, first compound 0.0316 µM): 102%
viability, T/C (second compound 10 µM, first compound 0.1 µM): 85.1%
viability, T/C (second compound 10 µM, first compound 0.316 µM): 81.4%
viability, T/C (second compound 10 µM, first compound 1 µM): 75.3%

SMILES: CC(=O)O[C@H]1C(=O)[C@@]2(C)[C@H]([C@H](OC(=O)c3ccccc3)[C@]3(O)C[C@H](OC(=O)[C@H](O)[C@@H](NC(=O)c4ccccc4)c4ccccc4)C(C)=C1C3(C)C)[C@]1(OC(C)=O)CO[C@@H]1C[C@@H]2O
viability, T/C (compound 0.00949 µM): 79.4% and 83.2% and 84.7%
viability, T/C (compound 0.03 µM): 83.6% and 72.1% and 70.3%
viability, T/C (compound 0.0949 µM): 74% and 72.5% and 60.7%
viability, T/C (compound 0.3 µM): 70.2% and 65.1% and 65.8%
viability, T/C (compound 0.949 µM): 69.9% and 66.2% and 67.9%
viability, T/C (compound 3 µM): 63.5% and 72.9% and 57.8%
IC50 (curve of compound): > 3 µM

IC50 (compound alone, run of 01/19/2024): > 10 µM
SMILES: Nc1ccc(C#CCN(C(=O)Cc2ncc(C(F)(F)F)cc2C(F)(F)F)c2ccc(F)cc2)nn1
viability, T/C (compound 0.1 µM): 101% [middle of 13 runs]
viability, T/C (compound 0.316 µM): 101% [middle of 13 runs]
viability, T/C (compound 1 µM): 95.2% [middle of 13 runs]
viability, T/C (compound 3.16 µM): 103% [middle of 13 runs]
viability, T/C (compound 10 µM): 108% [middle of 13 runs]

SMILES: COc1cc2cc(C(=O)CCC(=O)O)sc2cc1OC
viability, T/C (compound 0.0316 µM): 112% and 99.5% and 94.5%
viability, T/C (compound 0.1 µM): 107% and 103% and 89.5%
viability, T/C (compound 0.316 µM): 96.3% and 97.8% and 104%
viability, T/C (compound 1 µM): 101% and 96.7% and 102%
viability, T/C (compound 3.16 µM): 98.9% and 105% (2×)
viability, T/C (compound 10 µM): 99.8% and 101% and 109%
IC50 (curve of compound): > 10 µM
